Measured values: US7498336B2, “Deazaflavin compounds and methods of use thereof” (The United States of America as represented by the …, priority 2003, dated 2009)
Square brackets hold non-standard residues; d marks the D form. Peptide text beside a SMILES is read from it. Nle = CCCC[C@H](N)C(=O)O

How the values were obtained:
[1] = molecular target: T1, Nedd4 (Homo sapiens, UniProt P46934); test: In vitro ubiquitination assay (E1+E2+E3) with unrelated E3 ligase; type: biochemical; details: gel assay, FIG. 2B, 2C
T1 construct: made in house
T1 sequence (P46934 1-1319): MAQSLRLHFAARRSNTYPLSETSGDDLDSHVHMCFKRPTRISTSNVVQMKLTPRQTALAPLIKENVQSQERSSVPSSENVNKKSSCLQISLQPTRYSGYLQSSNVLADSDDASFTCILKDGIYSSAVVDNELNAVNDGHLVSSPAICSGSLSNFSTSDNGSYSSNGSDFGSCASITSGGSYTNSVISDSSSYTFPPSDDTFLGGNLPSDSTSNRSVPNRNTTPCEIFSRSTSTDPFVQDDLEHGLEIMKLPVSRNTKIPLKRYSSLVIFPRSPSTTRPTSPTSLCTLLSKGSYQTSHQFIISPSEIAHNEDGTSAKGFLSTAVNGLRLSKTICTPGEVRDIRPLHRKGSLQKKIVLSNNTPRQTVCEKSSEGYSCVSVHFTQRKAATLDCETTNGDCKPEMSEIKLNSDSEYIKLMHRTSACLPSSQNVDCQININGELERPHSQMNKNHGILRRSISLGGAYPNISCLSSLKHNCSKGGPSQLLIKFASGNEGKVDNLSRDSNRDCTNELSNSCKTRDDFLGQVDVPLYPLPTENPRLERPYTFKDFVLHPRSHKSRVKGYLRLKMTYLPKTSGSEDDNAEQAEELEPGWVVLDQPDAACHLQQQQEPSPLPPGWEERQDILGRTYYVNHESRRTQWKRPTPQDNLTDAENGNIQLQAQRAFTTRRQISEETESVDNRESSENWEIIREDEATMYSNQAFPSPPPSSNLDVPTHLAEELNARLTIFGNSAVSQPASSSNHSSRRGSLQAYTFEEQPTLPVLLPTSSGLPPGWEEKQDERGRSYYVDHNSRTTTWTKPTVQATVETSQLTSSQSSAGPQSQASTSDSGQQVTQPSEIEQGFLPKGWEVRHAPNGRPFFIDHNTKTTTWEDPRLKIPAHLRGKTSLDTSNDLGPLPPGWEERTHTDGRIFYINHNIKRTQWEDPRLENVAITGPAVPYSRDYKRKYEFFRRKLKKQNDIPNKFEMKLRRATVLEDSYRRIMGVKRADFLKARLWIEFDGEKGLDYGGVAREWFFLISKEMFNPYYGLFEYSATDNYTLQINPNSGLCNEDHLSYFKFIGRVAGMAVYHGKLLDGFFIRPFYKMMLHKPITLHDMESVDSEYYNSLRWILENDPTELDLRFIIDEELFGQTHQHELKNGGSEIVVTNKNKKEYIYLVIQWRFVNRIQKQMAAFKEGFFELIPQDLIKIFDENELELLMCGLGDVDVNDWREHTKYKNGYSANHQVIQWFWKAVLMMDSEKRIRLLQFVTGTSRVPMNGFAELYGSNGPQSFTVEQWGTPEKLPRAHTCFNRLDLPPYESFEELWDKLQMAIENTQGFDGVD
Method: (§1) 1 pmole per experimental point of bacterially expressed GST-MDM2 (or GST-Nedd) was coupled to glutathione Sepharose (GS) for 30 minutes at room temperature with tumbling, followed by 3× wash with 50 mM Tris pH 7.5. Following this, 20 μl of 1× buffer was added (40 μl 10× reaction buffer*, 40 μl 10× PCK**, 320 μl dH2O). The test compound in DMSO is then added to the desired concentration with an equal volume of DMSO used as a control. Samples are incubated with shaking for 1 hr at 23° C. To carry out the reaction, a pre-made cocktail of Rabbit E1 (Calbiochem #6620700)/UbcH5B/^32P Ub cocktail (1 μl/0.5 μl/1 μl) is added followed by 15 minutes shaking at 30° C. The reaction is terminated by addition of 8 μl 4× reducing SDS-PAGE loading buffer. After dissociating proteins from the beads at 100° C. for 2 minutes, samples are resolved on 6% PAGE followed by exposure of the dried gel to phosphor screen. Note: ^32P Ub is derived from GST-Ub that has been engineered to include a PKA phosphorylation site. This fusion protein is purified on glutathione Sepharose, phosphorylated, following this, the ^32P Ub ubiquitin is cleaved and purified away from the thrombin.

[2] = molecular target: T2, rabbit E1 (Oryctolagus cuniculus, UniProt Q29504); test: E1 only assay (thiol-ester linkage of ubiquitin with E1); type: biochemical; details: FIG. 2D
T2 construct: purchased Calbiochem 6620700
T2 sequence (Q29504 1-1058): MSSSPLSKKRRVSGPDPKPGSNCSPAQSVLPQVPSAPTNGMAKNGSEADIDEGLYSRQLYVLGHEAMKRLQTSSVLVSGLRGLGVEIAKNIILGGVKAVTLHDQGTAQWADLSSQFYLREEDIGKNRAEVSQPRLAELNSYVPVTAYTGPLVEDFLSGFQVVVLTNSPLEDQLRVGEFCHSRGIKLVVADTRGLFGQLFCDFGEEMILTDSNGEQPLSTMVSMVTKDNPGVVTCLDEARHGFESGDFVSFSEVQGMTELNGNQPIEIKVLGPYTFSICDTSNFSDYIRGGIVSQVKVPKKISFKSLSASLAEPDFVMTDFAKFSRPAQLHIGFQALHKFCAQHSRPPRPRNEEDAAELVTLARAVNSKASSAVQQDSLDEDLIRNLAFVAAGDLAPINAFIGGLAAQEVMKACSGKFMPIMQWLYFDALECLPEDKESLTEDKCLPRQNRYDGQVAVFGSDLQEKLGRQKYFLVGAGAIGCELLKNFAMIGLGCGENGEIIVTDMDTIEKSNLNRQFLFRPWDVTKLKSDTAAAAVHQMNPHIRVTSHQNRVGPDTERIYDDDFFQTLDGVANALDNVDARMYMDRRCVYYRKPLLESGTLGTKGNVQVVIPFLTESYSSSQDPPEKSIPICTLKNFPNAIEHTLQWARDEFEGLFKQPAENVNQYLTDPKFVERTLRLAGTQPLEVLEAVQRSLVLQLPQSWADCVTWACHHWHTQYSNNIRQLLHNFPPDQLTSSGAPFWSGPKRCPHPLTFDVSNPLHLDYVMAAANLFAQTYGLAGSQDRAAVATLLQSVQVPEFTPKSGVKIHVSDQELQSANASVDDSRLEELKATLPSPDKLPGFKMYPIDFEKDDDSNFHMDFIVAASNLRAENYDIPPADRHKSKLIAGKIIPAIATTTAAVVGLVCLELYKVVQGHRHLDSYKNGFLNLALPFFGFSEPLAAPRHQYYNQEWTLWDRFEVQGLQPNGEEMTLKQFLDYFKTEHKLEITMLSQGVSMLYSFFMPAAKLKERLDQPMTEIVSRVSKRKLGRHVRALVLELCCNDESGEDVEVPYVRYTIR
Method: 2 μl rabbit E1 +12 μl of 1× reaction buffer are mixed together with the test compound followed by addition of 1 μl of ^32P Ub is added for 10 minutes at room temperature followed by resolution by SDS-PAGE under non-reducing conditions to maintain thiol-ester linkages and exposure as above.

[3] = molecular target: T3, GST-MDM2 (Homo sapiens, UniProt Q00987); test: Standard MDM2 in vitro ubiquitination assay (E1+E2+E3), SDS-PAGE gel; type: biochemical; details: FIG. 2A, 2F
T3 construct: made in house
T3 sequence (Q00987 whole entry): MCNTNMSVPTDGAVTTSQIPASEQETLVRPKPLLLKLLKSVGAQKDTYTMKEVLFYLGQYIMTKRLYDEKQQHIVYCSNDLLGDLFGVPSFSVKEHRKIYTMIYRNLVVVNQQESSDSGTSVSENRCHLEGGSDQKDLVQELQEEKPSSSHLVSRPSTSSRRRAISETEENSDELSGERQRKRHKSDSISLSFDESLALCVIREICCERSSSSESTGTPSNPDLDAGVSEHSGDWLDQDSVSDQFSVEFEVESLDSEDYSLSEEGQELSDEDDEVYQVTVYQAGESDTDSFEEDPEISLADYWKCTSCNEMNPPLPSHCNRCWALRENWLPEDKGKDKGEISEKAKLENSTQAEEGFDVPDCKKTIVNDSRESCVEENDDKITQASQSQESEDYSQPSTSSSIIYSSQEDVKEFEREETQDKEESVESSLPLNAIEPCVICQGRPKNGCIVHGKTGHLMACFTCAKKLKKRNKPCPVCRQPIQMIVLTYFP
Method: a. “Standard MDM2 in vitro Ubiguitination Assay” (E1+E2+E3 Assay)
as §1, with “To carry out the reaction, a pre-made cocktail of Rabbit E1 (Calbiochem #6620700)/UbcH5B/^32P Ub cocktail (1 μl/0.5 μl/1 μl) is added followed by 15 minutes shaking at 30° C.” left out
• 500 mM Tris (pH 7.5) • 2 mM ATP • 5 mM MgCl2 • 1 mM DTT • 10 mM creatine phosphate (Sigma P4635) (45 mg/10 ml). **10× PCK • Sigma C7886, 1000 U, reconstitute in 200 μl 10 mM Tris pH 8.0.

[4] = molecular target: T4, p53 pre-bound to GST-MDM2 (Homo sapiens, UniProt Q00987); test: In vitro p53 ubiquitination assay; type: biochemical; details: cellular p53 pre-bound to GST-MDM2, FIG. 2G
T4 construct: made in house; host or cells: GST-MDM2: bacteria; p53: SaOS-p53 inducible cells
T4 sequence (Q00987 whole entry): as above
T4 sequence (P04637 whole entry partner): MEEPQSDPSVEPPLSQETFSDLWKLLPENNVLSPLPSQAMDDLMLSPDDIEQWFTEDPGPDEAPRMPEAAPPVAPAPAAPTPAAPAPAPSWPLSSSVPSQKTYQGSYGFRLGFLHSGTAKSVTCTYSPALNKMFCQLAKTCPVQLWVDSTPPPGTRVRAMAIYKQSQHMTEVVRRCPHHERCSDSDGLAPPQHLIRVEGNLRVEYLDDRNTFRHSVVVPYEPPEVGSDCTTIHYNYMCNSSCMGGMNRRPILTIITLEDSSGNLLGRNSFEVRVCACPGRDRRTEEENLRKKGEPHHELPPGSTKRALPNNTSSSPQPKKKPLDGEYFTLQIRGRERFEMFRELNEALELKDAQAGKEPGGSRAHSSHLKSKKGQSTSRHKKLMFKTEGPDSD
Method: d. In Vitro R53 Ubiguitination Assay
p53 protein from SaOS-p53 inducible cell lysate was purified from cells using GST-MDM2 (5 pmol) pre-bound to GS beads. Samples were then incubated with test compounds as above. Subsequently 2 μl rabbit E1, 1 μl UbcH5b, and 10 μg of ubiquitin were added. After reaction for 15 min at 23° C., samples were subject to SDS-PAGE under reducing conditions, transferred to nitrocellulose membranes and immunoblotted with anti-p53 (DO-1) followed by ECL using standard techniques.

[5] = system: Normal human fibroblast MRC-5; test: Cell based assay for accumulation of MDM2 and p53 (immunoblot); details: MRC-5 cells; for MDM2 level / p53 level: 50 μM, 8 hours
Method: Methods: Normal human fibroblast MRC-5 were chosen to determine whether the compounds from the high throughput screening can inhibit the E3 activity of Mdm2, i.e. stabilizing MDM2 and p53 in vivo. After being seeded in 12-well tissue culture cluster overnight, the cells were treated with 50 μM of the compounds for 8 hours. They were harvested with trypsin-EDTA, washed with PBS, and lysed with RIPA buffer. Following removal of insoluble pellet by centrifugation for 20 minutes at 10000 rpm, the lysate was separated on 4-20% gradient SDS-polyacrylamide gel and transferred onto nitrocellulose membrane. The membrane was then blotted with anti-p53 antibody (DO-1), anti-MDM2 antibodies (Ab-1 and Ab-2), anti-p27 (Santa Cruz), anti-Nedd4, and anti-p21Waf1 antibody. After extensive washing with PBS containing 0.5% Triton X-100, it was incubated with HRP-labeled donkey anti-mouse antibody and visualized using enhanced chemiluminescence.

[6] = system: E1A-transformed RPE cells; test: Apoptosis in E1A-transformed RPE cells; type: cell-based, human; details: FIG. 4 left
Text: Cell-based assays include model systems where primary human epithelial cells (“normal cells”) are compared to the same cells expressing the adenovirus E1A oncogene (“transformed cells”). Activation of p53 was not toxic to normal cells, but activation of p53 in transformed cells induces p53-mediated apoptosis. High concentrations of wild type (wt) p53 protein can induce apoptosis in a variety of different tumor cells. Potential inhibitors of MDM2 would regulate the stability and function of p53 and MDM2. Preferably the assays measure number of cells undergoing apoptosis due to MDM2 induced p53 degradation in tumor cells in the presence or absence of candidate compounds as compared to normal cells in the presence or absence of candidate compounds. An increase in the number of these cells undergoing apoptosis in the presence of candidate compounds in tumor cells, as compared to normal untreated cells is indicative of a potential anti-tumor compound. […]
Apoptosis and cell death were determined by FACS analysis of sub-G1 nuclei or counting trypan blue-positive cells under microscope. Caspase activity was measured using fluorogenic substrate Ac-DEVD-AFC and CytoFluor multi-well plate reader (PerSeptive Biosystems). […]

## O=c1nc2n(-c3ccc(Cl)cc3)c3ccc([N+](=O)[O-])cc3cc-2c(=O)[nH]1 [Compound 97H10, 10-(4-chloro-phenyl)-7-nitro-10H-pyrimido[4,5-b]quinoline-2,4-dione]
[1]
  selectivity of inhibition of MDM2 versus unrelated E3 ligase Nedd4: inhibits all E3s
[2]
  inhibition of thiol-ester linkage of ubiquitin with E1: block the activity of the E1 enzyme

## O=c1nc2n(-c3ccc(Cl)cc3)c3ccc([N+](=O)[O-])cc3cc-2c(=O)[nH]1 [Compound 98D07, 10-(-4-chloro-phenyl)-7-nitro-10H-pyrimido[4,5-b]quinoline-2,4-dione]
[3]
  inhibition of MDM2 E3 ligase (auto-ubiquitination): inhibition of MDM2 auto-ubiquitination
[4]
  inhibition of p53 ubiquitination by MDM2: significant dose-dependent inhibition of p53 ubiquitination
[5]
  MDM2 level: specifically increase MDM2 and p53
  p53 level: specifically increase MDM2 and p53

## Cc1ccc(-n2c3nc(=O)[nH]c(=O)c-3cc3cc([N+](=O)[O-])ccc32)cc1 [Compound 98E07, 10-(-4-methyl-phenyl)-7-nitro-10H-pyrimido[4,5-b]quinoline-2,4-dione]
[3]
  inhibition of MDM2 E3 ligase (auto-ubiquitination): inhibition of MDM2 auto-ubiquitination
[5]
  MDM2 level: specifically increase MDM2 and p53
  p53 level: specifically increase MDM2 and p53

## CCCC[C@@H](C=O)NC(=O)[C@H](CC(C)C)NC(=O)[C@H](CC(C)C)NC(C)=O [LLNL, reference compound] (Ac-Leu-Leu-[Nle]-aldehyde)
[5]
  MDM2 level: accumulated MDM2, p53, and p21
  p53 level: accumulated MDM2, p53, and p21
[5]; FIG. 3C
  p21 level: accumulated MDM2, p53, and p21
[6]
  apoptosis: markedly increased apoptosis
